Data on twelve molecules can be found in PubChem BioAssay AID184 (DTP/NCI, 2004).

“And” between values parts separate entries of the source, which are not always exact repeats. Identical values can stand only once. Toxic doses and inconclusive results are not listed.

This test relates to BALB/cJ mice, ADJ-PC-6 ip tumor, median survival T/C. As to the kind of experiment: NCI In Vivo Anticancer Drug Screen. Data for tumor model ADJ-PC-6 (intraperitoneal) in BALB/cJ mice. The conditions noted are these: endpoint: median survival time, higher = longer survival. On the procedure:
The antitumor activity of compounds was measured in mice bearing transplantable tumors. Survival or tumor size were measured and the results are expressed as the measurement made in the treated group (T) divided by the measurement made in the vehicle treated control group (C). The tumor model used in this assay is ADJ-PC-6 (intraperitoneal) in BALB/cJ mice

Setting [1] is: dose: 0.5 mg/kg/injection, schedule: Q04DX003 (ip), vehicle: saline.
Where [2] appears, read: dose: 1.0 mg/kg/injection, schedule: Q04DX003 (ip), vehicle: saline.
Setting [3] is: dose: 2.0 mg/kg/injection, schedule: Q04DX003 (ip), vehicle: saline.

`O=C1c2c(O)ccc(O)c2C(=O)c2c(NCCNCCO)ccc(NCCNCCO)c21`: the T/C reads like this: (dose: 0.38 mg/kg/injection, schedule: Q04DX003 (ip), vehicle: saline) 155 % of control and 267 % of control; (dose: 0.38 mg/kg/injection, schedule: Q04DX003 (iv), vehicle: saline) 89 % of control; under setting [1], 188 % of control; (dose: 0.5 mg/kg/injection, schedule: Q04DX003 (ip), vehicle: water) 186 % of control; (dose: 0.75 mg/kg/injection, schedule: Q04DX003 (ip), vehicle: saline) 179 % of control and 267 % of control; under setting [2], 207 % of control. Moreover, the T/C by setting is: (dose: 1.0 mg/kg/injection, schedule: Q04DX003 (ip), vehicle: water) 195 % of control; (dose: 1.5 mg/kg/injection, schedule: Q04DX003 (ip), vehicle: saline) 194 % of control and 267 % of control; (dose: 1.5 mg/kg/injection, schedule: Q04DX003 (iv), vehicle: saline) 153 % of control and 217 % of control; under setting [3], 342 % of control; (dose: 2.0 mg/kg/injection, schedule: Q04DX003 (ip), vehicle: water) 235 % of control; (dose: 3.0 mg/kg/injection, schedule: Q04DX003 (ip), vehicle: saline) 194 % of control and 267 % of control. Further, the T/C was 155 % of control and 232 % of control (dose: 3.0 mg/kg/injection, schedule: Q04DX003 (iv), vehicle: saline); 160 % of control (dose: 4.0 mg/kg/injection, schedule: Q04DX003 (ip), vehicle: saline); 179 % of control and 267 % of control (dose: 6.0 mg/kg/injection, schedule: Q04DX003 (iv), vehicle: saline).

Consider `CCCCCCCC(=O)N/N=C(\CO)[C@]1(O)Cc2c(O)c3c(c(O)c2[C@@H](OC2CC(N)C(O)C(C)O2)C1)C(=O)c1c(OC)cccc1C3=O` (stereo partly drawn), for which the T/C by setting is: (dose: 5.0 mg/kg/injection, schedule: Q04DX003 (ip), vehicle: saline) 165 % of control; (dose: 10.0 mg/kg/injection, schedule: Q04DX003 (ip), vehicle: saline) 242 % of control; (dose: 20.0 mg/kg/injection, schedule: Q04DX003 (ip), vehicle: saline) 180 % of control; (dose: 40.0 mg/kg/injection, schedule: Q04DX003 (ip), vehicle: saline) 226 % of control; (dose: 80.0 mg/kg/injection, schedule: Q04DX003 (ip), vehicle: saline) 118 % of control.

As to `CCN(CC)CCOC(=O)c1ccc(NCN2C(=O)CCC2=O)cc1`, the T/C by setting is: (dose: 10.0 mg/kg/injection, schedule: Q01DX009 (ip), vehicle: water) 110 % of control; (dose: 20.0 mg/kg/injection, schedule: Q01DX009 (ip), vehicle: water) 96 % of control; (dose: 40.0 mg/kg/injection, schedule: Q01DX009 (ip), vehicle: water) 98 % of control; (dose: 80.0 mg/kg/injection, schedule: Q01DX009 (ip), vehicle: water) 105 % of control; (dose: 160.0 mg/kg/injection, schedule: Q01DX009 (ip), vehicle: water) 92 % of control.

For the molecule `ClCC[N+]12CC[N+](CCCl)(CC1)C2`, the T/C was 88 % of control and 96 % of control and 111 % of control (dose: 10.0 mg/kg/injection, schedule: Q01DX009 (ip), vehicle: saline); 100 % of control and 103 % of control (dose: 20.0 mg/kg/injection, schedule: Q01DX009 (ip), vehicle: saline); 106 % of control (dose: 40.0 mg/kg/injection, schedule: Q01DX009 (ip), vehicle: saline); 107 % of control and 113 % of control (2×) (dose: 80.0 mg/kg/injection, schedule: Q01DX009 (ip), vehicle: saline); 96 % of control and 102 % of control and 103 % of control (dose: 160.0 mg/kg/injection, schedule: Q01DX009 (ip), vehicle: saline).

As for `Cc1c(N)nc([C@H](CC(N)=O)NC[C@H](N)C(N)=O)nc1C(=O)N[C@H](C(=O)N[C@H](C)[C@@H](O)[C@H](C)C(=O)N[C@H](C(=O)NCCc1nc(-c2nc(C(=O)NCCC[S+](C)C)cs2)cs1)[C@@H](C)O)C(OC1OC(CO)C(O)C(O)C1OC1OC(CO)C(O)C(OC(N)=O)C1O)c1cnc[nH]1` (stereo partly drawn), the T/C runs as follows: (dose: 3.75 mg/kg/injection, schedule: Q04DX003 (ip), vehicle: saline) 101 % of control and 108 % of control; (dose: 7.5 mg/kg/injection, schedule: Q04DX003 (ip), vehicle: saline) 89 % of control and 116 % of control; (dose: 15.0 mg/kg/injection, schedule: Q04DX003 (ip), vehicle: saline) 102 % of control; (dose: 30.0 mg/kg/injection, schedule: Q04DX003 (ip), vehicle: saline) 105 % of control and 112 % of control; (dose: 60.0 mg/kg/injection, schedule: Q04DX003 (ip), vehicle: saline) 106 % of control and 116 % of control.

Consider `NC(=O)c1cn(C2OC(CO)C(O)C2O)c2ncnc(N)c12` (stereo not drawn), for which the T/C runs as follows: (dose: 0.4 mg/kg/injection, schedule: Q04DX003 (ip), vehicle: saline with Tween-80) 107 % of control; (dose: 0.8 mg/kg/injection, schedule: Q04DX003 (ip), vehicle: saline with Tween-80) 173 % of control; (dose: 6.0 mg/kg/injection, schedule: Q04DX003 (ip), vehicle: saline with Tween-80) 182 % of control.

On to `COc1cccc2c1C(=O)c1c(O)c3c(c(O)c1C2=O)C[C@@](O)(C(C)=O)C[C@@H]3OC1CC(N(Cc2ccccc2)Cc2ccccc2)C(O)C(C)O1` (stereo partly drawn), for which the T/C was 96 % of control (dose: 5.0 mg/kg/injection, schedule: Q04DX003 (ip), vehicle: saline with Tween-80); 109 % of control (dose: 10.0 mg/kg/injection, schedule: Q04DX003 (ip), vehicle: saline with Tween-80); 177 % of control (dose: 20.0 mg/kg/injection, schedule: Q04DX003 (ip), vehicle: saline with Tween-80).

`CC1(CO)C(O)CCC2(C)C1CCC1CC3CC12CCC3(O)CO` (stereo not drawn): the T/C is, setting by setting: (dose: 37.5 mg/kg/injection, schedule: Q04DX003 (ip), vehicle: Klucel (hydroxypropylcellulose) (HPC)) 92 % of control and 120 % of control; (dose: 75.0 mg/kg/injection, schedule: Q04DX003 (ip), vehicle: Klucel (hydroxypropylcellulose) (HPC)) 115 % of control and 118 % of control; (dose: 150.0 mg/kg/injection, schedule: Q04DX003 (ip), vehicle: Klucel (hydroxypropylcellulose) (HPC)) 100 % of control and 109 % of control; (dose: 600.0 mg/kg/injection, schedule: Q04DX003 (ip), vehicle: Klucel (hydroxypropylcellulose) (HPC)) 106 % of control.

Take `O=C(O)C1(C(=O)O)CCC1.[NH2-].[NH2-].[Pt+2]`: the T/C (dose: 10.8 mg/kg/injection, schedule: Q01DX009 (ip), vehicle: water) was 159 % of control; the T/C (dose: 11.7 mg/kg/injection, schedule: Q04DX003 (ip), vehicle: water) is 106 % of control; the T/C (dose: 12.5 mg/kg/injection, schedule: Q04DX003 (ip), vehicle: saline) was 108 % of control; the T/C (dose: 18.0 mg/kg/injection, schedule: Q01DX009 (ip), vehicle: water) is 175 % of control; the T/C (dose: 19.4 mg/kg/injection, schedule: Q04DX003 (ip), vehicle: water) is 106 % of control; the T/C (dose: 25.0 mg/kg/injection, schedule: Q04DX003 (ip), vehicle: saline) is 114 % of control. Moreover, the T/C runs as follows: (dose: 32.4 mg/kg/injection, schedule: Q04DX003 (ip), vehicle: water) 164 % of control; (dose: 50.0 mg/kg/injection, schedule: Q04DX003 (ip), vehicle: saline) 178 % of control; (dose: 54.0 mg/kg/injection, schedule: Q04DX003 (ip), vehicle: water) 170 % of control and 215 % of control; (dose: 90.0 mg/kg/injection, schedule: Q04DX003 (ip), vehicle: water) 103 % of control; (dose: 100.0 mg/kg/injection, schedule: Q04DX003 (ip), vehicle: saline) 217 % of control.

In the case of `NC(C/[N+]([O-])=N/O)C(=O)O` (stereo not drawn), the T/C runs as follows: (dose: 50.0 mg/kg/injection, schedule: Q04DX003 (ip), vehicle: alkali diluted with saline) 108 % of control; (dose: 100.0 mg/kg/injection, schedule: Q04DX003 (ip), vehicle: alkali diluted with saline) 115 % of control; (dose: 250.0 mg/kg/injection, schedule: Q04DX003 (ip), vehicle: alkali diluted with saline) 153 % of control; (dose: 400.0 mg/kg/injection, schedule: Q04DX003 (ip), vehicle: alkali diluted with saline) 171 % of control; (dose: 500.0 mg/kg/injection, schedule: Q04DX003 (ip), vehicle: alkali diluted with saline) 188 % of control; (dose: 800.0 mg/kg/injection, schedule: Q04DX003 (ip), vehicle: alkali diluted with saline) 167 % of control.

In the case of `COc1cc(NS(C)(=O)=O)ccc1Nc1c2ccccc2nc2ccccc12`, the T/C is, setting by setting: (dose: 5.0 mg/kg/injection, schedule: Q04DX003 (ip), vehicle: other) 161 % of control; (dose: 10.0 mg/kg/injection, schedule: Q04DX003 (ip), vehicle: other) 205 % of control.

Consider `CCC1(O)CC2CN(CCc3c([nH]c4ccccc34)C(C(=O)OC)(c3cc4c(cc3OC)N(C)C3C(O)(C(N)=O)C(O)C5(CC)C=CCN6CCC43C65)C2)C1` (stereo not drawn) (tested in a mixture with another compound), for which the T/C is, setting by setting: (dose: 0.25 mg/kg/injection, schedule: Q04DX003 (ip), vehicle: saline) 92 % of control and 100 % of control; under setting [1], 106 % of control; under setting [2], 102 % of control; under setting [3], 115 % of control and 235 % of control.
